Test results as given in patent EP4603105A1, “PHARMACEUTICAL COMPOSITION CONTAINING CYCLIC COMPOUND HAVING SELECTIVE KRAS INHIBITORY EFFECT AGAINST HRAS AND NRAS” (CHUGAI SEIYAKU KABUSHIKI KAISHA, priority 2022, dated 2024).
Like-named read-outs stand apart in the source and are kept apart here.

What was measured:
HRAS wild-type protein = HRAS wild-type protein (Homo sapiens, UniProt P01112); experiment: Binding to HRAS by surface plasmon resonance (SPR), KD and KD ratio to KRAS
Procedure, shortened: (§1)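 GDP-bound biotin-Avi RAS captured at ~100–300 RU, 30°C, pH 7.4 HBS containing 10 µM GDP, 10 mM MgCl2, 1 mM DTT, 0.01% Tween 20 and 4% DMSO. KD by 1:1 fitting.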

[1] = test system: human lung cancer strain NCI-H441; experiment: NCI-H441 cell proliferation inhibitory activity (CellTiter-Glo, 4 days); format: cell-based; settings: read-out: NCl-H441 IC50
Procedure, shortened: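 Readout: […] after the ATP-based reagent. Compound: serial dilutions in dimethyl sulfoxide.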

[2] = molecular target: GDP-bound KRAS wild-type protein (Homo sapiens, UniProt P01116); experiment: Binding to KRAS by surface plasmon resonance (SPR), dissociation constant KD
GDP-bound KRAS wild-type protein, sequence (P01116 1-188 isoform P01116-2): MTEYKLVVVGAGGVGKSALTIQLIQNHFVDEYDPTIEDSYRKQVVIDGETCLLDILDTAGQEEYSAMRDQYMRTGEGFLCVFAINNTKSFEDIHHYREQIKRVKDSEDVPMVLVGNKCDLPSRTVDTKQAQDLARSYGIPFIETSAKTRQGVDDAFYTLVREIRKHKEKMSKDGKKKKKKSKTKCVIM
Procedure, shortened: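 Biotinylated GDP-bound RAS was captured at about 100–300 RU. Running buffer: HBS pH 7.4, 10 mM MgCl2, 10 µM GDP, 1 mM DTT, 0.01% Tween 20, 4% DMSO.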

[3] = molecular target: GDP-bound NRAS wild-type protein (Homo sapiens, UniProt P01111); experiment: Binding to NRAS by surface plasmon resonance (SPR), KD and KD ratio to KRAS
GDP-bound NRAS wild-type protein, sequence (P01111 whole entry): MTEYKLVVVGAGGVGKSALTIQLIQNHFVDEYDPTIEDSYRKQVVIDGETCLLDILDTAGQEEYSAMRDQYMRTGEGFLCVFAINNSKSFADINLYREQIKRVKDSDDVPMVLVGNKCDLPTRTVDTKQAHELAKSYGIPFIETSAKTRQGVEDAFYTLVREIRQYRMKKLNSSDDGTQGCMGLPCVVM
Procedure, shortened: as §1

[4] = ratio of KD with respect to HRAS wild-type protein to KD with respect to KRAS
[5] = 50% proliferation inhibitory concentration, four days
[6] = Single Cycle Kinetics, 1:1 binding model
[7] = ratio of KD with respect to GDP-bound NRAS wild-type protein to KD with respect to KRAS
[8] = ratio of KD for HRAS wild-type protein to KD for KRAS
[9] = ratio of KD for GDP-bound NRAS wild-type protein to KD for KRAS

HRAS wild-type protein, sequence (P01112 whole entry): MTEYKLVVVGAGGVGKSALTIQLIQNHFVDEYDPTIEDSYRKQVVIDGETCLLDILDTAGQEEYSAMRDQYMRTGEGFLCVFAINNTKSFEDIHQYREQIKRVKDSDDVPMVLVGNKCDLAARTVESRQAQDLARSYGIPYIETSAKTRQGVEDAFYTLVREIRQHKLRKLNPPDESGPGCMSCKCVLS

Structure (SMILES)	IC50 [1, 5] [nM]	Kd [2, 6] [nM]	IC50 ([1]; NCI-H441 cells, 4 days) [nM]	Kd ([2]; Single Cycle Kinetics) [nM]	Kd ([2]; 1:1 binding model) [nM]	HRAS /KRAS (HRAS wild-type protein; [4])	NRAS /KRAS [3, 7]	HRAS /KRAS (HRAS wild-type protein; [8])	NRAS /KRAS [3, 9]
CCO[C@@H]1C[C@H]2C(=O)NC3(CCC3)C(=O)N(C)[C@@H](C3CCCC3)C(=O)N(C)[C@H](C(=O)N3CCOCC3)CC(=O)N(C)[C@@H](CC(C)C)C(=O)N[C@@H]([C@@H](C)CC)C(=O)N(C)CC(=O)N(C)[C@H]3C/C=C\CCN(C3=O)[C@@H](Cc3ccc(C(F)(F)F)cc3)C(=O)N(C)CC(=O)N[C@@H](CCc3cc(F)c(C(F)(F)F)c(F)c3)C(=O)N2C1 [PP1282]	12.3	0.2	–	–	–	A (a compound having 10 or more and less than 20 is denoted as A)	A (a compound having 10 or more and less than 20 is denoted as A)	–	–
C=CC[C@H]1C(=O)N(C)[C@H](C(=O)N(C)C)CC(=O)N(C)[C@@H](CCC)C(=O)N[C@@H]([C@@H](C)CC)C(=O)N2CCC[C@H]2C(=O)N(C)[C@H]2C/C=C\CCN(C2=O)[C@@H](Cc2ccc(C(F)(F)F)cc2)C(=O)N(C)CC(=O)N[C@@H](CCc2cc(F)c(C(F)(F)F)c(F)c2)C(=O)N2C[C@H](OCC)C[C@H]2C(=O)N(C)C2(CCC2)C(=O)N1C [PP3338]	–	–	104	4.6	–	–	–	A (a compound having 10 or more and less than 20 is denoted as A)	A (a compound having 10 or more and less than 20 is denoted as A)
CCO[C@@H]1C[C@H]2C(=O)NC3(CCC3)C(=O)N(C)[C@@H](C3CCCC3)C(=O)N(C)[C@H](C(=O)N3CCOCC3)CC(=O)N(C)[C@@H](CC(C)C)C(=O)N[C@@H]([C@@H](C)CC)C(=O)N3CC[C@H]3C(=O)N(C)[C@H]3CC[C@@H](C)CN(C3=O)[C@@H](Cc3ccc(C(F)(F)F)cc3)C(=O)N(C)CC(=O)N[C@@H](CCc3ccc(C(F)(F)F)c(Cl)c3)C(=O)N2C1 [PP1379]	10.3	0.29	–	–	–	B (a compound having 3 or more and less than 10 is denoted as B)	A (a compound having 10 or more and less than 20 is denoted as A)	–	–
CCO[C@@H]1C[C@H]2C(=O)NC3(CC(C)(C)C3)C(=O)N(C)[C@@H](C3CCCC3)C(=O)N(C)[C@H](C(=O)N(C)CC)CC(=O)N(C)[C@@H]([C@@H](C)OC)C(=O)N[C@@H]([C@@H](C)CC)C(=O)N3CCC[C@H]3C(=O)N(C)[C@H]3C/C=C\CCN(C3=O)[C@@H](Cc3ccc(C(F)(F)F)cc3)C(=O)N(C)CC(=O)N[C@@H](CCc3cc(F)c(C(F)(F)F)c(F)c3)C(=O)N2C1 [PP3172]	–	–	69.9	0.81	–	–	–	A (a compound having 10 or more and less than 20 is denoted as A)	AA (a compound having 20 or more is denoted as AA)
CCOC[C@H]1C(=O)N[C@@H]([C@@H](C)CC)C(=O)N(C)CC(=O)N(C)[C@H]2C/C=C\CCN(C2=O)[C@@H](Cc2ccc(C)cc2)C(=O)N(C)CC(=O)N[C@@H](CCc2cc(F)c(C(F)(F)F)c(F)c2)C(=O)N2C[C@H](OCC)C[C@H]2C(=O)NC2(CC(C)(C)C2)C(=O)N(C)[C@@H](C2CCCC2)C(=O)N(C)[C@H](C(=O)N(C)C)CC(=O)N1C [PP2397]	–	–	4.7	–	0.051	–	–	A (a compound having 10 or more and less than 20 is denoted as A)	A (a compound having 10 or more and less than 20 is denoted as A)
CCO[C@@H]1C[C@H]2C(=O)NC3(CCC3)C(=O)N(C)[C@@H](C3CCCC3)C(=O)N(C)[C@H](C(=O)N(C)C)CC(=O)N(C)[C@@H](CSC)C(=O)N[C@@H]([C@@H](C)CC)C(=O)N(C)CC(=O)N(C)[C@H]3C/C=C\CCN(C3=O)[C@@H](CC3CCCCC3)C(=O)N(C)CC(=O)N[C@@H](CCc3cc(F)c(C(F)(F)F)c(F)c3)C(=O)N2C1 [PP1463]	44.5	0.13	–	–	–	A (a compound having 10 or more and less than 20 is denoted as A)	A (a compound having 10 or more and less than 20 is denoted as A)	–	–
CCC[C@H]1C(=O)N[C@@H](C23CC(C2)C3)C(=O)N2CCC[C@H]2C(=O)N(C)[C@H]2C/C=C\CCN(C2=O)[C@@H](Cc2ccc(C)cc2)C(=O)N(C)CC(=O)N[C@@H](CCc2ccc(C(F)(F)F)c(OC)c2)C(=O)N2C[C@H](OCC)C[C@H]2C(=O)N(C)C2(CCC2)C(=O)N(C)[C@@H](C2CCCC2)C(=O)N(C)[C@H](C(=O)N(C)C)CC(=O)N1C [PP3342]	–	–	22.8	1.8	–	–	–	A (a compound having 10 or more and less than 20 is denoted as A)	A (a compound having 10 or more and less than 20 is denoted as A)
C#CC[C@H]1C(=O)N[C@@H]([C@@H](C)CC)C(=O)N(C2CC2)CC(=O)N(C)[C@H]2C/C=C\CCN(C2=O)[C@@H](Cc2ccc(C)cc2)C(=O)N(C)CC(=O)N[C@@H](CCc2cc(F)c(C(F)(F)F)c(F)c2)C(=O)N2C[C@H](OCC)C[C@H]2C(=O)N(C)C2(CCC2)C(=O)N(C)[C@@H](C2CCCC2)C(=O)N(C)[C@H](C(=O)N(C)C)CC(=O)N1C [PP3250]	–	–	2.8	0.1	–	–	–	B (a compound having 3 or more and less than 10 is denoted as B)	A (a compound having 10 or more and less than 20 is denoted as A)
C#CC[C@H]1C(=O)N[C@@H]([C@@H](C)CC)C(=O)N(C2CC2)CC(=O)N(C)[C@H]2C/C=C\CCN(C2=O)[C@@H](Cc2ccc(C(F)(F)F)cc2)C(=O)N(C)CC(=O)N[C@@H](CCc2ccc(C(F)(F)F)c(Cl)c2)C(=O)N2C[C@H](OCC)C[C@H]2C(=O)N(C)C2(CCC2)C(=O)N(C)[C@@H](C2CCCC2)C(=O)N(C)[C@H](C(=O)N(C)C)CC(=O)N1C [PP3246]	–	–	3.8	0.086	–	–	–	A (a compound having 10 or more and less than 20 is denoted as A)	A (a compound having 10 or more and less than 20 is denoted as A)
CCCOC[C@H]1C(=O)N[C@@H](C2CCCC2)C(=O)N(CCC)CC(=O)N(C)[C@H]2C/C=C\CCN(C2=O)[C@@H](Cc2ccc(C(F)F)cc2)C(=O)N(C)CC(=O)N[C@@H](CCc2cc(F)c(C(F)(F)F)c(F)c2)C(=O)N2C[C@H](OC(C)C)C[C@H]2C(=O)N(C)C2(CCC2)C(=O)N(C)[C@@H](C(CC)CC)C(=O)N(C)[C@H](C(=O)N(C)C)CC(=O)N1C [PP3487]	–	–	39.8	0.96	–	–	–	A (a compound having 10 or more and less than 20 is denoted as A)	A (a compound having 10 or more and less than 20 is denoted as A)

Now from value to compound, other results behind:

IC50 [1, 5] [nM]	Kd [2, 6] [nM]	IC50 ([1]; NCI-H441 cells, 4 days) [nM]	Kd ([2]; Single Cycle Kinetics) [nM]	Kd ([2]; 1:1 binding model) [nM]	Structure (SMILES)	HRAS /KRAS (HRAS wild-type protein; [4])	NRAS /KRAS [3, 7]	HRAS /KRAS (HRAS wild-type protein; [8])	NRAS /KRAS [3, 9]
–	–	17.4	–	0.84	CCO[C@@H]1C[C@H]2C(=O)NC3(CC(C)(C)C3)C(=O)N(C)[C@@H](C(CC)CC)C(=O)N(C)[C@H](C(=O)N(C)C)CC(=O)N(C)[C@@H](CC3CC3)C(=O)N[C@@H]([C@@H](C)CC)C(=O)N(C)CC(=O)N(C)[C@H]3C/C=C\CCN(C3=O)[C@@H](CC3CCC(F)(F)CC3)C(=O)N(C)CC(=O)N[C@@H](CCc3ccc(C(F)(F)F)c(Cl)c3)C(=O)N2C1 [PP2495]	–	–	A (a compound having 10 or more and less than 20 is denoted as A)	A (a compound having 10 or more and less than 20 is denoted as A)
–	–	162	4	–	CCCO[C@@H]1C[C@H]2C(=O)NC3(CC(C)(C)C3)C(=O)N(C)[C@@H](C3CCCC3)C(=O)N(C)[C@H](C(=O)N(C)CC)CC(=O)N(C)[C@@H](COCC)C(=O)N[C@@H]([C@@H](C)CC)C(=O)N3C[C@@H](C)C[C@H]3C(=O)N(C)[C@H]3C/C=C\CCN(C3=O)[C@@H](Cc3ccc(C)cc3)C(=O)N(C)CC(=O)N[C@@H](CCc3ccc(C(F)(F)F)c(Cl)c3)C(=O)N2C1 [PP3464]	–	–	A (a compound having 10 or more and less than 20 is denoted as A)	A (a compound having 10 or more and less than 20 is denoted as A)
103	0.19	–	–	–	CCO[C@@H]1C[C@H]2C(=O)NC3(CCC3)C(=O)N(C)[C@@H](C3CCCC3)C(=O)N(C)[C@H](C(=O)N3CCC3)CC(=O)N(C)[C@@H](CC)C(=O)N[C@@H]([C@@H](C)CC)C(=O)N(C)CC(=O)N(C)[C@H]3C/C=C\CCN(C3=O)[C@@H](CC3CCC(F)(F)CC3)C(=O)N(C)CC(=O)N[C@@H](CCc3cc(F)c(C(F)(F)F)c(F)c3)C(=O)N2C1 [PP1444]	A (a compound having 10 or more and less than 20 is denoted as A)	A (a compound having 10 or more and less than 20 is denoted as A)	–	–
–	–	32.1	1	–	C=CCN1CC(=O)N(C)[C@H]2C/C=C\CCN(C2=O)[C@@H](Cc2ccc(C(F)F)cc2)C(=O)N(C)CC(=O)N[C@@H](CCc2ccc(C(F)(F)F)cc2Cl)C(=O)N2C[C@H](OC(C)C)C[C@H]2C(=O)N(C)C2(CCC2)C(=O)N(C)[C@@H](C(CC)CC)C(=O)N(C)[C@H](C(=O)N(C)C)CC(=O)N(C)[C@@H](CC2CC2)C(=O)N[C@@H]([C@@H](C)OCCC)C1=O [PP3493]	–	–	A (a compound having 10 or more and less than 20 is denoted as A)	AA (a compound having 20 or more is denoted as AA)
–	–	11.6	1.3	–	CCO[C@@H]1C[C@H]2C(=O)OC3(CCC3)C(=O)N(C)[C@@H](C3CCCC3)C(=O)N(C)[C@H](C(=O)N(C)C)CC(=O)N(C)[C@@H]([C@H](C)OC)C(=O)N[C@@H]([C@@H](C)CC)C(=O)N(C3CC3)CC(=O)N(C)[C@H]3C/C=C\CCN(C3=O)[C@@H](Cc3ccc(C(F)(F)F)cc3)C(=O)N(C)CC(=O)N[C@@H](CCc3ccc(C(F)(F)F)c(OC)c3)C(=O)N2C1 [PP3378]	–	–	A (a compound having 10 or more and less than 20 is denoted as A)	A (a compound having 10 or more and less than 20 is denoted as A)
